Reference: US5521293A (Lever Brothers Company, Division of Conopco, Inc., priority 1995, dated 1996)

Key:
Type in all cases: physicochemical
[1] = Krafft point of aqueous dispersion of aldonamide; details: for Krafft Point (0.1%): 0.1% in water by weight; for Krafft Point (1.0%): 1.0% in water by weight
Description: The temperature at and above which surfactants begin to form micelles instead of precipitates is referred to as the Krafft point (Tk) and at this temperature the solubility of a surfactant becomes equal to its CMC (numerical value at which micelles are formed).
The Krafft point was measured by preparing 650 ml of a 0.1% or 1.0% dispersion of aldonamide in water by weight. If the surfactant was soluble at room temperature, the solution was slowly cooled to 0° C. […] (less than zero). If it precipitated out of solution, the temperature at which precipitation occurs was taken as the Krafft point.
If the surfactant was insoluble at :room temperature, the dispersion was slowly heated until the solution became homogeneous. It was then slowly cooled until precipitation occurred. The temperature at which the surfactant precipitates out of solution upon cooling was taken as the Krafft point.

Ross-Miles foam height [2] = experiment: Ross-Miles foam height; set-up: key: X: low water solubility. foam height cannot be measured; details: Examples 82-83; for Foam Height Final (symbol): after 10 minutes
Description: (§1) Since most of the foaming data on surfactants is typically obtained by the Ross-Miles Foam Height Assay (Ross, J. and Miles, G. D. Am Soc. for Testing Material Method D1173-63 Philadelphia, Pa. (1953); Oil & Soap (1958) 62:1260) the foaming ability of these surfactants were acquired using this method.
(§2) In the Ross-Miles method, 200 mL of a surfactant solution contained in a pipette of specified dimensions with a 2.9-mm-i.d. orifice is allowed to fall 90 cm onto 50 mL of the same solution contained in a cylindrical vessel maintained at a given temperature by means of a water jacket. The height of the foam produced in the cylindrical vessel is read immediately after all the solution has run out of the pipette and then again after a given amount of time.
(§3) Using this method, the foam production (initial foam height in mm) and foam stability (final foam height after 10 minutes in mm) were measured at 0.1% aldonamide concentration, 40° C. and 0 ppm (parts per million) hardness. Aldonamides that were not soluble at 40° C. were measured at about 5°-10° C. above their Krafft points.

Water solubility = details: in words
Ross-Miles foam height [3] = details: 0.1% aldonamide, 40° C. (or about 5°-10° C. above Krafft point if not soluble), 0 ppm hardness; for Foam Height Final: after 10 minutes
Description: as §1, §2, §3

Molecule	Krafft Point (0.1%) [1] [°C]	Krafft Point (1.0%) [1] [°C]	other results
CCCCCCCCCCCCNC(=O)[C@H](O)[C@H](O)[C@H](O)CO [A, dodecyl D-ribonamide]	54		
CCCCCCCCCCCCOC(=O)CNC(=O)[C@H](O)[C@@H](O)[C@H](O[C@@H]1O[C@H](CO)[C@H](O)[C@H](O)[C@H]1O)[C@H](O)CO [AAA, N-D-lactobionyl dodecyl glycinate]		< 0	
CCCCCCCCCCCCOC(=O)CCNC(=O)[C@H](O)[C@@H](O)[C@H](O[C@@H]1O[C@H](CO)[C@H](O)[C@H](O)[C@H]1O)[C@H](O)CO [BBB, N-D-lactobionyl dodecyl β-alaninate]		< 0	
CCCCCCCNC(=O)[C@H](O)[C@@H](O)[C@H](O)[C@H](O)CO [C, C7 D-Gluconamide]	< 0		
CCCCCCCC/C=C\CCCCCCCCNCCCNC(=O)[C@H](O)[C@@H](O)[C@H](O)[C@H](O)CO [CC, oleylaminopropyl D-gluconamide]	< 0		
CCCCCCCCNC(=O)[C@H](O)[C@@H](O)[C@H](O)[C@H](O)CO [D, C8 D-Gluconamide]	12		
CCCCCCCCCNC(=O)[C@H](O)[C@@H](O)[C@H](O)[C@H](O)CO [E, C9 D-Gluconamide]	53		
CCCCCCCCCCCCOCCCNC(=O)[C@H](O)[C@@H](O)[C@H](O)[C@H](O)CO [Entry S, C12 Oxypropyl D-Gluconamide]	61		
CCCCCCCCCCNC(=O)[C@H](O)[C@@H](O)[C@H](O)[C@H](O)CO [F, C10 D-Gluconamide]	75		
CCCCCCCCCCCCNC(=O)C(O)C(O)C(O)C(O)C(O)C(O)CO [FF, C12 D-Glucooctonamide]	86		Foam Height Final (symbol) (Ross-Miles foam height [2]): X; Foam Height Initial (symbol) (Ross-Miles foam height [2]): X
CCCCCCCCCCCNC(=O)[C@H](O)[C@@H](O)[C@H](O)[C@H](O)CO [G, C11 D-Gluconamide]	87		Foam Height Final (symbol) (Ross-Miles foam height [2]): X; Foam Height Initial (symbol) (Ross-Miles foam height [2]): X
CCCCCCCCCCCCNC(=O)[C@H](O)[C@H](O)[C@@H](O)[C@@H](O)[C@H](O)CO [GG, C12 D-Glycero-L-Mannoheptonamide]	> 100		water solubility (Water solubility): Insoluble
CCCCCCCCCCCCNC(=O)[C@H](O)[C@H](O)[C@@H](O)[C@H](O)[C@H](O)CO [HH, C12 D-Glucoheptonamide]	91		Foam Height Final (symbol) (Ross-Miles foam height [2]): X; Foam Height Initial (symbol) (Ross-Miles foam height [2]): X
CCCCCCCCCCCCNC(=O)[C@@H](O)[C@H](O)[C@@H](O)[C@@H](O)CO [I, C12 L-Gluconamide]	91		Foam Height Final (symbol) (Ross-Miles foam height [2]): X; Foam Height Initial (symbol) (Ross-Miles foam height [2]): X
CCCCCCCCCCCCNC(=O)[C@H](O)[C@@H](O)[C@@H](O)[C@H](O)CO [J, C12 D-Galactonamide]	> 100		water solubility (Water solubility): Insoluble
CCCCCCCCCCCCNC(=O)[C@@H](O)[C@H](O)[C@H](O)[C@@H](O)CO [K, C12 L-Galactonamide]	> 100		water solubility (Water solubility): Insoluble
CCCCCCCCCCCCOCCCNC(=O)[C@H](O)[C@H](O)[C@@H](O)[C@H](O)[C@H](O)CO [KK, C12 Oxypropyl D-Glucoheptonamide]	73		
CCCCCCCCCNC(=O)[C@H](O)[C@@H](O)[C@H](O[C@@H]1O[C@H](CO)[C@H](O)[C@H](O)[C@H]1O)[C@H](O)CO [MM, nonyl D-lactobionamide]		42	
C8 /C10 Oxypropyl D-Glucoheptonamide [II]	60		Foam Height Final (Ross-Miles foam height [3]): 90 mm; Foam Height Initial (Ross-Miles foam height [3]): 221 mm
C12 -C15 Oxypropyl D-Glucoheptonamide [LL]	68		Foam Height Final (Ross-Miles foam height [3]): 97 mm; Foam Height Initial (Ross-Miles foam height [3]): 239 mm
Iso C10 Oxypropyl D-Glucoheptonamide [JJ]	18		Foam Height Final (Ross-Miles foam height [3]): 204 mm; Foam Height Initial (Ross-Miles foam height [3]): 215 mm
Iso C10 Oxypropyl D-Gluconamide	< 0		Foam Height Final (Ross-Miles foam height [3]): 206 mm; Foam Height Initial (Ross-Miles foam height [3]): 213 mm
Iso C13 Oxypropylaminopropyl D-Gluconamide [DD]	< 0		Foam Height Final (Ross-Miles foam height [3]): 178 mm
cocoaminopropyl D-gluconamide [AA]	18		
cocoaminopropyl D-lactobionamide [CCC]		< 0	
dodecyl to pentadecyloxypropylaminopropyl D-gluconamide [EE]	< 0		
dodecyl to pentadecyloxypropylaminopropyl D-lactobionamide [EEE]		< 0	
octyl/decyloxypropyl D-lactobionamide [VV]		< 0	
oleylaminopropyl D-lactobionamide [DDD]		< 0	Foam Height Initial (Ross-Miles foam height [3]): 169 mm
soyaaminopropyl D-gluconamide [BB]	< 18		

The next lines start with results.

Krafft Point (0.1%) [1] [°C]	Krafft Point (1.0%) [1] [°C]	Molecule	other results
53		CCCCCCCCCCCCOC(=O)C(C)NC(=O)[C@H](O)[C@@H](O)[C@H](O)[C@H](O)CO (mixture of isomers) [Y, N-D-Gluconyl Dodecyl DL-Alaninate]	
	61	CCCCCCCCCCCNC(=O)[C@H](O)[C@@H](O)[C@H](O[C@@H]1O[C@H](CO)[C@H](O)[C@H](O)[C@H]1O)[C@H](O)CO [NN, C11 D-Lactobionamide]	
	38	CCCCCCCCCCCCNC(=O)[C@H](O)[C@@H](O)[C@H](O[C@@H]1O[C@H](CO)[C@H](O)[C@H](O)[C@H]1O)[C@H](O)CO [OO, C12 D-Lactobionamide]	
< 0		CCCCC(CC)COCCCNC(=O)[C@H](O)[C@@H](O)[C@H](O)[C@H](O)CO (stereo partly drawn) [P, Ethylhexyloxypropyl D-Gluconamide]	
	70	CCCCCCCCCCCCCNC(=O)[C@H](O)[C@@H](O)[C@H](O[C@@H]1O[C@H](CO)[C@H](O)[C@H](O)[C@H]1O)[C@H](O)CO [PP, C13 D-Lactobionamide]	
	18	CCCCCCCCCCCCCCNC(=O)[C@H](O)[C@@H](O)[C@H](O[C@@H]1O[C@H](CO)[C@H](O)[C@H](O)[C@H]1O)[C@H](O)CO [QQ, C14 D-Lactobionamide]	
	46	CCCCCCCCCCCCCCNC(=O)[C@H](O)[C@@H](O)[C@H](O[C@H]1O[C@H](CO)[C@@H](O)[C@H](O)[C@H]1O)[C@H](O)CO [RR, C14 D-Maltobionamide]	
	64	CCCCCCCCCCCCCCCCNC(=O)[C@H](O)[C@@H](O)[C@H](O[C@@H]1O[C@H](CO)[C@H](O)[C@H](O)[C@H]1O)[C@H](O)CO [TT, C16 D-Lactobionamide]	
53		CCCCCCCCCCCCCCOCCCNC(=O)[C@H](O)[C@@H](O)[C@H](O)[C@H](O)CO [V, C14 Oxypropyl D-Gluconamide]	
63		CCCCCCCCCCCCOC(=O)CNC(=O)[C@H](O)[C@@H](O)[C@H](O)[C@H](O)CO [W, N-D-gluconyl dodecyl glycinate]	
	< 0	CCCCCCCCCCCCOCCCNC(=O)[C@H](O)[C@@H](O)[C@H](O[C@@H]1O[C@H](CO)[C@H](O)[C@H](O)[C@H]1O)[C@H](O)CO [WW, dodecyloxypropyl D-lactobionamide]	
63		CCCCCCCCCCCC(=O)OCCNC(=O)[C@H](O)[C@@H](O)[C@H](O)[C@H](O)CO [X, N-D-gluconyl dodecyl ester of ethanolamine]	
	< 0	CCCCCCCCCCCCOCCCNC(=O)[C@H](O)[C@@H](O)[C@H](O[C@H]1O[C@H](CO)[C@@H](O)[C@H](O)[C@H]1O)[C@H](O)CO [XX, dodecyloxypropyl D-maltobionamide]	
< 0		CCCCCCCCCCCCOCCOCCOC(=O)CNC(=O)[C@H](O)[C@@H](O)[C@H](O)[C@H](O)CO [Z, N-D-Gluconyl Dodecyldi(oxyethyl) Glycinate]	
	< 0	CCCCCCCCCCCCCCOCCCNC(=O)[C@H](O)[C@@H](O)[C@H](O[C@@H]1O[C@H](CO)[C@H](O)[C@H](O)[C@H]1O)[C@H](O)CO [ZZ, tetradecyloxypropyl D-lactobionamide]	
< 15		Iso C13 Oxypropyl D-Gluconamide [T]	
58		dodecyl to pentadecyloxypropyl D-gluconamide	
	< 0	dodecyl to pentadecyloxypropyl D-lactobionamide [YY]	
10		octyl/decyloxypropyl D-ribonamide	
